How the values were obtained:
SK-MEL-28 = assay: NCI 60 cell line screen; assay type: cell-based; conditions: Homo sapiens; SK-MEL-28, Melanoma; read-out: Percent growth
Protocol: (§1) Anticancer profiling over a panel of 60 cancer cell lines was carried out at the National Cancer Institute (NCI), Bethesda, Maryland, USA, https://dtp.cancer.gov/discovery_development/nci-60/methodology.htm (Last visit 22 September 2021), using the standard procedure (detailed procedure is located in the Supplementary Information page 50 s).
(§2) NCI standard procedure for 60 cell lines assay
(§3) The human tumor cell lines of the cancer screening panel are grown in RPMI 1640 mediu m containing 5% fetal bovine serum and 2 mM L-glutamine. For a typical screening experiment, cells are inoculated into 96 well microtiter plates in 100 μL at plating densities ranging from 5,000 to 40,000 cells/well depending on the doubling time of individual cell lines. After cell inoculation, the microtiter plates are incubated at 37° C, 5 % CO2, 95 % air and 100 % relative humidity for 24 h prior to addition of experimental drugs.
(§4) After 24 h, two plates of each cell line are fixed in situ with TCA, to represent a measurement of the cell population for each cell line at the time of drug addition (Tz). Experimental drugs are solubilized in dimethyl sulfoxide at 400-fold the desired final maximum test concentration (10 µM) and stored frozen prior to use. At the time of drug addition, an aliquot of frozen concentrate is thawed and diluted to twice the desired final maximum test concentration with co mp lete medium containing 50 μg/ml gentamicin. Additional four, 10-fold or ½ log serial dilutions are made to provide a total of five drug concentrations plus control. Aliquots of 100 μl of these different drug dilutions are added to the appropriate microtiter wells already containing 100 μl of medium, resulting in the required final drug concentrations.
(§5) Following drug addition, the plates are incubated for an additional 48 h at 37°C, 5 % CO2, 95 % air, and 100 % relative humidity. For adherent cells, the assay is terminated by the addition of cold TCA. Cells are fixed in situ by the gentle addition of 50 μl of cold 50 % (w/v) TCA (final concentration, 10 % TCA) and incubated for 60 minutes at 4°C. The supernatant is discarded, and the plates are washed five times with tap water and air dried. Sulforhodamine B (SRB) solution (100 μl) at 0.4 % (w/v) in 1 % acetic acid is added to each well, and plates are incubated for 10 minutes at room temperature. After staining, unbound dye is removed by washing five times with 1 % acetic acid and the plates are air dried. Bound stain is subsequently solubilized with 10 mM trizma base, and the absorbance is read on an automated plate reader at a wavelength of 515 nm. For suspension cells, the methodology is the same except that the assay is terminated by fixing settled cells at the bottom of the wells by g ently adding 50 μl of 80 % TCA (final concentration, 16 % TCA). Using the seven absorbance measurements [time zero, (Tz), control growth, (C), and test growth in the presence of drug at the five concentration levels (Ti)], the percentage growth is calculated at each of the drug concentrations levels. Percentage growth inhibition is calculated as:
(§6) [(Ti-Tz)/(C-Tz)] x 100 for concentrations for which Ti>/=Tz
(§7) [(Ti-Tz)/Tz] x 100 for concentrations for which Ti<Tz.
(§8) Three dose response parameters are calculated for each experimental agent. Growth inhibition of […]
(§9) resulting in a 50% reduction in the net protein increase (as measured by SRB staining) in control cells during the drug incubation. The drug concentration resulting in total growth inhibition […]
(§10) (TGI) is calculated from Ti = Tz.

786-0 = assay: NCI 60 cell line screen; assay type: cell-based; conditions: Homo sapiens; 786-0, Renal Cancer; read-out: Percent growth
Protocol: as §1, §2, §3, §4, §5, §6, §7, §8, §9, §10

HOP-62 = assay: NCI 60 cell line screen; assay type: cell-based; conditions: Homo sapiens; HOP-62, Non-Small Cell Lung Cancer; read-out: Percent growth
Protocol: as §1, §2, §3, §4, §5, §6, §7, §8, §9, §10

UACC-62 = assay: NCI 60 cell line screen; assay type: cell-based; conditions: Homo sapiens; UACC-62, Melanoma; read-out: Percent growth
Protocol: as §1, §2, §3, §4, §5, §6, §7, §8, §9, §10

OVCAR-8 = assay: NCI 60 cell line screen; assay type: cell-based; conditions: Homo sapiens; OVCAR-8, Ovarian Cancer; read-out: Percent growth
Protocol: as §1, §2, §3, §4, §5, §6, §7, §8, §9, §10

HS 578T = assay: NCI 60 cell line screen; assay type: cell-based; conditions: Homo sapiens, Breast Cancer, read-out: Percent growth
Protocol: as §1, §2, §3, §4, §5, §6, §7, §8, §9, §10

HL-60(TB) = assay: NCI 60 cell line screen; assay type: cell-based; conditions: Homo sapiens, Leukemia, read-out: Percent growth
Protocol: as §1, §2, §3, §4, §5, §6, §7, §8, §9, §10

TK-10 = assay: NCI 60 cell line screen; assay type: cell-based; conditions: Homo sapiens; TK-10, Renal Cancer; read-out: Percent growth
Protocol: as §1, §2, §3, §4, §5, §6, §7, §8, §9, §10

SNB-19 = assay: NCI 60 cell line screen; assay type: cell-based; conditions: Homo sapiens; SNB-19, CNS-Cancer; read-out: Percent growth
Protocol: as §1, §2, §3, §4, §5, §6, §7, §8, §9, §10

CCRF-CEM = assay: NCI 60 cell line screen; assay type: cell-based; conditions: Homo sapiens, Leukemia, read-out: Percent growth
Protocol: as §1, §2, §3, §4, §5, §6, §7, §8, §9, §10

IGROV1 = assay: NCI 60 cell line screen; assay type: cell-based; conditions: Homo sapiens, IGROV-1; IGROV1, Ovarian Cancer; read-out: Percent growth
Protocol: as §1, §2, §3, §4, §5, §6, §7, §8, §9, §10

V600EBRAF = molecular target: T1, V600EBRAF (Homo sapiens, UniProt P15056, V600E); assay: Reaction Biology kinase HotSpot enzyme assay; assay type: biochemical; conditions: 1 µM ATP; for IC50: mean ± S.D. of two separate experiments; for % Inhibition at 1 µM over V600EBRAF / inhibition at 1 µM: single dose 1 µM, mean ± S.D. of two experiments; for inhibition at 1 µM: read-out: % Inhibition at 1 µM over V600EBRAF
T1 construct: purchased Reaction Biology Corp. (Kinase HotSpot service)
T1 sequence (P15056 whole entry V600E): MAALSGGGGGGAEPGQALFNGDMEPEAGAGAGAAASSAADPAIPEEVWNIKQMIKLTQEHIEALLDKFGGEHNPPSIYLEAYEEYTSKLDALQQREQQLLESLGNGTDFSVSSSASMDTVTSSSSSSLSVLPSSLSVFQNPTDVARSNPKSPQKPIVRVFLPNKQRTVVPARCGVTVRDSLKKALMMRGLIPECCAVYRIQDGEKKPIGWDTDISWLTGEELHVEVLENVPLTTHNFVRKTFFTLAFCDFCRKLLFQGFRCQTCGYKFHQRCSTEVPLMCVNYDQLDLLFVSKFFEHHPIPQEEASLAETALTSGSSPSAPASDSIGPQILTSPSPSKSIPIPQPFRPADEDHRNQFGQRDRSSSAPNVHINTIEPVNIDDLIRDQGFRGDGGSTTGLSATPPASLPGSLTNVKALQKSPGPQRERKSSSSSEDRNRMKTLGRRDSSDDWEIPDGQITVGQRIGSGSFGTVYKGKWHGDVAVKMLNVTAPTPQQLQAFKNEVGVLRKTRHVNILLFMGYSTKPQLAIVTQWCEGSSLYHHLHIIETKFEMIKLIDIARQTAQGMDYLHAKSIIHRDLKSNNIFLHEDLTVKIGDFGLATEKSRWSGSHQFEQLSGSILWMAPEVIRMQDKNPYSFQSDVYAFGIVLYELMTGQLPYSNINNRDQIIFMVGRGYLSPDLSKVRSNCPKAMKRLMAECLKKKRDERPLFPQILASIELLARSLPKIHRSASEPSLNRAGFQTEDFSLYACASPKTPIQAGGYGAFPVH
Protocol: Reaction Biology Corp. Kinase HotSpotTM service
(§11) Proﬁler Express for IC50 measurement. Assay protocol: In a ﬁnal reaction volume of 25 μL, kinase (5–10 mU) is incubated with 25 mM Tris pH 7.5, 0.02 mM EGTA, 0.66 mg/mL myelin basic protein, 10 mM magnesium acetate and [γ33P-ATP] (speciﬁc activity approx. 500 cpm/pmol, concentration as required). The reaction is initiated by the addition of the Mg-ATP mix. After incubation for 40 min at room temperature, the reaction is stopped by the addition of 5 μL of a 3% phosphoric acid solution. 10 μL of the reaction is then spotted onto a P30 ﬁltermat, and washed three times for 5 min in 75 mM phosphoric acid and once in methanol prior to drying and scintillation counting.

CRAF = CRAF (Homo sapiens, UniProt P04049); assay: Reaction Biology kinase HotSpot enzyme assay; assay type: biochemical; conditions: 1 µM ATP; mean ± S.D. of two separate experiments; read-out: IC50 CRAF
Sequence of CRAF (P04049 whole entry): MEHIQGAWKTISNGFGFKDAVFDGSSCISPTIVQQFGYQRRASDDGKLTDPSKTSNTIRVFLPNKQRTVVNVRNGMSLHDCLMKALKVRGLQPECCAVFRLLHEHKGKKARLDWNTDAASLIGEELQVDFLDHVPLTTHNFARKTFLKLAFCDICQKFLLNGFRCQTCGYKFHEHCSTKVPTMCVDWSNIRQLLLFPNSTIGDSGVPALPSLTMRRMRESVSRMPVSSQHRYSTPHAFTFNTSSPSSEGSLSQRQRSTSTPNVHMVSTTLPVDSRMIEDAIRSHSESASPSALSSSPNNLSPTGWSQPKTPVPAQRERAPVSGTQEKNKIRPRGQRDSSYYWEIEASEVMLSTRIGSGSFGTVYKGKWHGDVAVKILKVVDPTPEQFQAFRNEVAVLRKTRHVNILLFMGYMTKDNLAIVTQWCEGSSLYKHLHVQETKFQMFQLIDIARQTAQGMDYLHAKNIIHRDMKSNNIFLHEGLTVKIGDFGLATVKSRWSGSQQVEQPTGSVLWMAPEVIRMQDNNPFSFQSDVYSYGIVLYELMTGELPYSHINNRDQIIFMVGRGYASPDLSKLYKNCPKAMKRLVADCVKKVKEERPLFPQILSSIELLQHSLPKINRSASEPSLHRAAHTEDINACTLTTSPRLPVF
Protocol: as §11, with “Reaction Biology Corp. Kinase HotSpotTM service http://www.reactionbiology.com was used for screening of compounds IC50 Proﬁler” for “Proﬁler”

With `O=S(=O)(NCCNc1nccc(-n2cnc3ccccc32)n1)c1ccccc1` [12a, N-(2-((4-(1H-benzo [d]imidazol-1-yl)pyrimidin-2-yl)amino)ethyl)benzenesulfonamide] the activity at 10 µM (SK-MEL-28) was 108%, the activity at 10 µM (786-0) was 103% and the activity at 10 µM (HOP-62) was 90.7%. The activity at 10 µM (UACC-62) was 78.3%, the activity at 10 µM (OVCAR-8) was 98% and the activity at 10 µM (HS 578T) was 93.5%. The activity at 10 µM (HL-60(TB)) was 113%, the activity at 10 µM (TK-10) was 104% and the activity at 10 µM (SNB-19) was 99.6%. It also gave an activity at 10 µM (CCRF-CEM) of 96%, an activity at 10 µM (IGROV1) of 89.9% and an IC50 (V600EBRAF) of 1.91 ± 0.14 µM. The “% Inhibition at 1 µM over V600EBRAF” value (V600EBRAF) was 30.35 ± 0.41%, the inhibition at 1 µM (V600EBRAF) was 30% and the IC50 (CRAF) was 2.98 ± 0.21 µM.

`O=S(=O)(NCCNc1nccc(-n2cnc3ccccc32)n1)c1ccc(F)cc1` [12b, N-(2-((4-(1H-benzo [d]imidazol-1-yl)pyrimidin-2-yl)amino)ethyl)-4-fluorobenzenesulfonamide] gave an activity at 10 µM (SK-MEL-28) of 101%, an activity at 10 µM (786-0) of 102% and an activity at 10 µM (HOP-62) of 90.9%. The activity at 10 µM (UACC-62) was 71.3%, the activity at 10 µM (OVCAR-8) was 89% and the activity at 10 µM (HS 578T) was 85.5%. The activity at 10 µM (HL-60(TB)) was 106%, the activity at 10 µM (TK-10) was 97.8% and the activity at 10 µM (SNB-19) was 93%. For the same compound, the activity at 10 µM (CCRF-CEM) was 93.5%, the activity at 10 µM (IGROV1) was 89.3% and the IC50 (V600EBRAF) was 0.74 ± 0.051 µM. The “% Inhibition at 1 µM over V600EBRAF” value (V600EBRAF) was 75.17 ± 0.27%, the inhibition at 1 µM (V600EBRAF) was 75% and the IC50 (CRAF) was 1.34 ± 0.19 µM.

`O=S(=O)(NCCNc1nccc(-n2cnc3ccccc32)n1)c1ccc(Cl)cc1` [12c, N-(2-((4-(1H-benzo [d]imidazol-1-yl)pyrimidin-2-yl)amino)ethyl)-4-chlorobenzenesulfonamide] gave an activity at 10 µM (SK-MEL-28) of 101%, an activity at 10 µM (786-0) of 99% and an activity at 10 µM (HOP-62) of 95.4%. The activity at 10 µM (UACC-62) was 86.4%, the activity at 10 µM (OVCAR-8) was 102% and the activity at 10 µM (HS 578T) was 88.1%. For the same compound, the activity at 10 µM (HL-60(TB)) was 113%, the activity at 10 µM (TK-10) was 101% and the activity at 10 µM (SNB-19) was 97.7%. For the same compound, the activity at 10 µM (CCRF-CEM) was 103%, the activity at 10 µM (IGROV1) was 98.2% and the IC50 (V600EBRAF) was 0.82 ± 0.024 µM. The “% Inhibition at 1 µM over V600EBRAF” value (V600EBRAF) was 70.55 ± 0.71%, the inhibition at 1 µM (V600EBRAF) was 71% and the IC50 (CRAF) was 1.49 ± 0.23 µM.

`O=S(=O)(NCCNc1nccc(-n2cnc3ccccc32)n1)c1ccc(Br)cc1` [12d, N-(2-((4-(1H-benzo [d]imidazol-1-yl)pyrimidin-2-yl)amino)ethyl)-4-bromobenzenesulfonamide] gave an activity at 10 µM (SK-MEL-28) of 108%, an activity at 10 µM (786-0) of 103% and an activity at 10 µM (HOP-62) of 87.2%. For the same compound, the activity at 10 µM (UACC-62) was 82.8%, the activity at 10 µM (OVCAR-8) was 95.6% and the activity at 10 µM (HS 578T) was 85.7%. The activity at 10 µM (HL-60(TB)) was 114%, the activity at 10 µM (TK-10) was 103% and the activity at 10 µM (SNB-19) was 101%. The activity at 10 µM (CCRF-CEM) was 101%, the activity at 10 µM (IGROV1) was 90.7% and the IC50 (V600EBRAF) was 0.91 ± 0.019 µM. The “% Inhibition at 1 µM over V600EBRAF” value (V600EBRAF) was 69.28 ± 0.51%, the inhibition at 1 µM (V600EBRAF) was 69% and the IC50 (CRAF) was 2.1 ± 0.18 µM.

In the case of `O=S(=O)(NCCNc1nccc(-n2cnc3ccccc32)n1)c1ccc(C(F)(F)F)cc1` [12e, N-(2-((4-(1H-benzo [d]imidazol-1-yl)pyrimidin-2-yl)amino)ethyl)-4-(trifluoromethyl)benzenesulfonamide], the activity at 10 µM (SK-MEL-28) is reported as 77.2%, the activity at 10 µM (786-0) is reported as 69.7% and the activity at 10 µM (HOP-62) is reported as 66.1%. The activity at 10 µM (UACC-62) was 42.4%, the activity at 10 µM (OVCAR-8) was 63.5% and the activity at 10 µM (HS 578T) was 42.9%. For the same compound, the activity at 10 µM (HL-60(TB)) was 73.8%, the activity at 10 µM (TK-10) was 63.4% and the activity at 10 µM (SNB-19) was 69.8%. For the same compound, the activity at 10 µM (CCRF-CEM) was 57.6%, the activity at 10 µM (IGROV1) was 66.4% and the IC50 (V600EBRAF) was 0.62 ± 0.031 µM. The “% Inhibition at 1 µM over V600EBRAF” value (V600EBRAF) was 98.24 ± 0.44%, the inhibition at 1 µM (V600EBRAF) was 98% and the IC50 (CRAF) was 1.14 ± 0.088 µM.

`COc1ccc(S(=O)(=O)NCCNc2nccc(-n3cnc4ccccc43)n2)cc1` [12f, N-(2-((4-(1H-benzo [d]imidazol-1-yl)pyrimidin-2-yl)amino)ethyl)-4-methoxy benzenesulfonamide] was tested, and the activity at 10 µM (SK-MEL-28) was 97.9%, the activity at 10 µM (786-0) was 93% and the activity at 10 µM (HOP-62) was 94.6%. For the same compound, the activity at 10 µM (UACC-62) was 76.6%, the activity at 10 µM (OVCAR-8) was 91.5% and the activity at 10 µM (HS 578T) was 84.1%. For the same compound, the activity at 10 µM (HL-60(TB)) was 106%, the activity at 10 µM (TK-10) was 92.5% and the activity at 10 µM (SNB-19) was 95.3%. The activity at 10 µM (CCRF-CEM) was 102%, the activity at 10 µM (IGROV1) was 89% and the IC50 (V600EBRAF) was 0.98 ± 0.02 µM. The “% Inhibition at 1 µM over V600EBRAF” value (V600EBRAF) was 55.21 ± 0.52%, the inhibition at 1 µM (V600EBRAF) was 55% and the IC50 (CRAF) was 1.67 ± 0.21 µM.
